The test system of series [1] is primary mouse cortical neurons. The series is described as follows: MTT viability assay in mouse primary cortical neurons. The series is classed as cell-based. How it is done:
The compounds were diluted from 250 mM DMSO stocks to a 100 mM stock in DMSO. Thereafter, compounds were diluted to 100 μM, 20 μM, 5 μM, 1 μM, 0.2 μM, 0.05 μM, 0.01 μM and 0.001 μM dilution in medium, so that the final DMSO concentration in the well was 0.1% for all conditions. Stock solutions were stored at −20° C. until further use.
Isolation and treatment of primary mouse cortical neurons: Primary cortical neurons were prepared from timed pregnant wild-type C57BL/6JRccHsd mice at E16.5-E18. Animals were sacrificed by carbon dioxide and embryos were dissected in Calcium and Magnesium free Hanks Balanced Salt Solution (CMF-HBSS) containing 15 mM HEPES and 10 mM NaHCO3, pH 7.2. Embryos were decapitated, skin and skull gently removed and cortical hemispheres were separated. After removing meninges and brain stem, the cortex was isolated, chopped with a sterile razor blade in Chop solution (Hibernate-E without Calcium containing 2% B-27) and digested in 2 mg/mL papain (Worthington) dissolved in Hibernate-E without Calcium for 30 min at 30° C. Cortices were triturated for 10-15 times with a fire-polished silanized Pasteur pipette in Hibernate-E without Calcium containing 2% B-27, 0.01% DNaseI, 1 mg/mL BSA, and 1 mg/mL Ovomucoid Inhibitor. Undispersed pieces were allowed to settle by gravity for 1 min and the supernatant was centrifuged for 3 min at 228 g. The pellet was resuspended in Hibernate-E containing 2% B-27, 0.01% DNaseI, 1 mg/mL BSA, 1 mg/mL Ovomucoid Inhibitor and diluted with Hibernate-E containing 2% B-27. After the second centrifugation step (3 min at 228 g), the pellet was resuspended in nutrition medium without glutamate (Neurobasal, 2% B-27, 0.5 mM glutamine, 1% Penicillin-Streptomycin). Cells were counted in a hemacytometer and seeded in nutrition medium on poly-D-lysine pre-coated plates. Cells were cultured at 37° C.; 95% humidity and 5% CO2. All wells were handled the same way. On DIV8, cells were treated with the compounds for the evaluation of the neurotoxic effect. On DIV9, the MTT and LDH assays were performed as described below. The experiments were performed in six technical replicates for all groups per experiment.
MTT viability assay: Viability of cultures was determined on DIV9 by the MTT assay using a plate-reader (570 nm). MTT solution was added to each well in a final concentration of 0.5 mg/mL. After 2 h the MTT containing medium was aspirated. Cells were lysed in 3% SDS and the formazan crystals were dissolved in isopropanol/HCl. Optical density was measured with a plate-reader at wavelength 570 nm. Cell survival rate was expressed as optical density (OD). Values were calculated as percent of control values (vehicle control).

Series [2] has as its target T1, human recombinant glutaminyl cyclase (hQC) (Homo sapiens, UniProt Q16769).
T1 construct: purchased Eurogentec AS-72230
The series is described as follows: In vitro determination of human QC inhibitory activity (SensoLyte Green Glutaminyl Cyclase Activity Assay Kit). The class given is biochemical. How it is done:
Basic statistical analysis was performed.

The next series has as its system LPS stimulated BV2 cells. As to the kind of experiment: Cytokine release in LPS stimulated BV2 cells. The conditions noted are these: 24 h. The class given is cell-based, murine. On the procedure:
Compounds of formula I were diluted from 250 mM DMSO stock solutions to a 10 mM stock in DMSO. Thereafter, the compounds were diluted to 10 μM and 1 μM in medium, so that the final DMSO concentration in the well was 0.1% for all conditions. The stock solutions were stored at −20° C. until further use.
Culture and treatment of BV-2 cells: The murine microglial cell line BV-2 was cultivated in Dulbecco's modified eagle medium (DMEM) supplemented with 10% fetal calf serum (FCS), 1% penicillin/streptomycin and 2 mM L-glutamine (culture medium). For the lipopolysaccharide (LPS) stimulation assay, 20,000 BV-2 cells per well (uncoated 96 well plates) were plated out. After 48 h, the medium was changed to treatment medium (DMEM, 5% FCS, 2 mM L-glutamine) and cells were maintained in treatment medium for the remaining culture period. After changing cells to treatment medium, the compounds were administered 1 h before LPS stimulation (Sigma-Aldrich; L6529; 1 mg/mL stock in ddH2O, final concentration in well: 100 ng/mL (dilutions in medium)). Cells treated with vehicle and LPS alone served as controls. All wells were handled the same way. After 24 h of stimulation, cell supernatants were collected for the cytokine measurement. The experiment was performed in n=6 technical replicates for all groups.
Cytokine measurement: The samples were diluted 1:2 and analysed for 4 cytokines (IL-1β, IL-2, IL-6, TNF-α) with a commercially available immunosorbent assay kit (U-plex, K15069L, Mesoscale Discovery) according to the instructions of the manufacturer. In brief, 25 μL of diluent 41 and 25 μL sample or respective standard were placed into wells of the pre-coated U-plex plate and incubated on an orbital shaker at room temperature for 1 h. Plates were washed 3 times with phosphate buffered saline with 0.05% Tween 20 (PBST) and thereafter 50 μL of detection antibody were added. Plates were again incubated on an orbital shaker at room temperature for 1 h. After another 3 washing steps with PBST, 150 μL of Mesoscale Discovery (MSD) GOLD Read Buffer were added and plates were read on Sector imager. Data were evaluated in comparison to calibration curves provided in the kit.
Statistics: Basic statistical analysis was performed. Group differences were evaluated by e.g. one-way ANOVA followed by a posthoc test, if appropriate.

T1 sequence (Q16769 29-361): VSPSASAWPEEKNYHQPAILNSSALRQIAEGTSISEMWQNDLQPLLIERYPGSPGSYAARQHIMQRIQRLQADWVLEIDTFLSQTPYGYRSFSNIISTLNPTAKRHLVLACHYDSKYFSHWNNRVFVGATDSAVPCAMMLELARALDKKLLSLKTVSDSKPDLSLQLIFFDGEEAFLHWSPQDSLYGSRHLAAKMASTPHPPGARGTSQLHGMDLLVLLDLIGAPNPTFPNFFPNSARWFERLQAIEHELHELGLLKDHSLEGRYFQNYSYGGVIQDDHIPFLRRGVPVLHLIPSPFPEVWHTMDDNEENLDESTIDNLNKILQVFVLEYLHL

On to `Cc1cncn1CCCNC(=O)NC1C2CC3CC(C2)CC1C3` (centres unmarked) [Ii, 1-(adamantan-2-yl)-3-[3-(5-methyl-1H-imidazol-1-yl)propyl]urea], for which the “primary cortical neuronal cell viability, MTT” value is 101 % of vehicle control in series [1] (compound 0.001 μM); 95 % of vehicle control in series [1] (compound 0.01 μM); 99 % of vehicle control in series [1] (compound 0.05 μM); 96 % of vehicle control in series [1] (compound 0.2 μM); 101 % of vehicle control in series [1] (compound 1 μM); 101 % of vehicle control in series [1] (compound 5 μM). Further, the “primary cortical neuronal cell viability, MTT” value was 101 % of vehicle control in series [1] (compound 20 μM) and 55 % of vehicle control in series [1] (compound 100 μM). In series [2], the IC50 came to 189 nM. In addition, the IL-1β level with LPS stimulated BV2 cells (compound 1 μM) is 86 % of vehicle control; with LPS stimulated BV2 cells (compound 10 μM) it was 125 % of vehicle control. Moreover, the values for the IL-2 level in the series on LPS stimulated BV2 cells (compound 1 μM) and with LPS stimulated BV2 cells (compound 10 μM) were 66 % of vehicle control and 48 % of vehicle control, respectively. For the same compound, the IL-6 level in the series on LPS stimulated BV2 cells (compound 1 μM) was 63 % of vehicle control; in the series with LPS stimulated BV2 cells (compound 10 μM), 62 % of vehicle control. For the same compound, the TNF-α level in the series with LPS stimulated BV2 cells (compound 1 μM) was 104 % of vehicle control; with LPS stimulated BV2 cells (compound 10 μM) it was 103 % of vehicle control.
In the case of `CCC12CC3CC(C1)CC(NC(=O)NCCCn1cncc1C)(C3)O2` [Is, 1-(3-ethyl-2-oxaadamantan-1-yl)-3-[3-(5-methyl-1H-imidazol-1-yl)propyl]urea], the “primary cortical neuronal cell viability, MTT” value is listed as 104 % of vehicle control in series [1] (compound 0.001 μM); 102 % of vehicle control in series [1] (compound 0.01 μM); 103 % of vehicle control in series [1] (compound 0.05 μM); 96 % of vehicle control in series [1] (compound 0.2 μM); 101 % of vehicle control in series [1] (compound 1 μM); 103 % of vehicle control in series [1] (compound 5 μM). For the same compound, the “primary cortical neuronal cell viability, MTT” value in series [1] (compound 20 μM) was 101 % of vehicle control; in series [1] (compound 100 μM), 86 % of vehicle control. Moreover, in series [2], the IC50 turned out to be 96 nM. Besides, the IL-1β level is reported as 95 % of vehicle control with LPS stimulated BV2 cells (compound 1 μM) and 124 % of vehicle control in the series with LPS stimulated BV2 cells (compound 10 μM). Moreover, the IL-2 level in the series on LPS stimulated BV2 cells (compound 1 μM) was 66 % of vehicle control; with LPS stimulated BV2 cells (compound 10 μM), 48 % of vehicle control. Moreover, the IL-6 level is recorded as 65 % of vehicle control in the series on LPS stimulated BV2 cells (compound 1 μM) and 64 % of vehicle control in the series with LPS stimulated BV2 cells (compound 10 μM). The TNF-α level in the series on LPS stimulated BV2 cells (compound 1 μM) and in the series with LPS stimulated BV2 cells (compound 10 μM) was 104 % of vehicle control throughout.
As to `CCC12CC3CC(C1)CC(NC(=O)NCCCn1cncc1C)(C3)C2` [Id, 1-(3-ethyladamantan-1-yl)-3-[3-(5-methyl-1H-imidazol-1-yl)propyl]urea], the “primary cortical neuronal cell viability, MTT” value is listed as 110 % of vehicle control in series [1] (compound 0.001 μM); 107 % of vehicle control in series [1] (compound 0.01 μM); 100 % of vehicle control in series [1] (compound 0.05 μM); 99 % of vehicle control in series [1] (compound 0.2 μM); 99 % of vehicle control in series [1] (compound 1 μM); 93 % of vehicle control in series [1] (compound 5 μM). The entries for the “primary cortical neuronal cell viability, MTT” value in series [1] (compound 20 μM) and in series [1] (compound 100 μM) were 89 % of vehicle control and 53 % of vehicle control, respectively. Also, in series [2], the 50% inhibitory concentration (IC50) is 570 nM. The IL-1β level with LPS stimulated BV2 cells (compound 1 μM) was 46 % of vehicle control; with LPS stimulated BV2 cells (compound 10 μM), 73 % of vehicle control. In addition, the values for the IL-2 level in the series on LPS stimulated BV2 cells (compound 1 μM) and in the series with LPS stimulated BV2 cells (compound 10 μM) were 38 % of vehicle control and 26 % of vehicle control, respectively. Besides, the IL-6 level is on record as 34 % of vehicle control in the series with LPS stimulated BV2 cells (compound 1 μM) and 24 % of vehicle control with LPS stimulated BV2 cells (compound 10 μM). Further, the TNF-α level in the series on LPS stimulated BV2 cells (compound 1 μM) was 98 % of vehicle control; in the series with LPS stimulated BV2 cells (compound 10 μM) it was 84 % of vehicle control.
With `Cc1cncn1CCCNC(=O)NC12CC3CC(CC(C)(C3)O1)C2` [Ir, 1-[3-(5-methyl-1H-imidazol-1-yl)propyl]-3-(3-methyl-2-oxaadamantan-1-yl)urea], the “primary cortical neuronal cell viability, MTT” value in series [1] (compound 0.001 μM) is reported as 97 % of vehicle control; in series [1] (compound 0.01 μM) it was 97 % of vehicle control; in series [1] (compound 0.05 μM), 93 % of vehicle control; in series [1] (compound 0.2 μM), 99 % of vehicle control; in series [1] (compound 1 μM), 101 % of vehicle control; in series [1] (compound 5 μM), 99 % of vehicle control. Also, the “primary cortical neuronal cell viability, MTT” value is 99 % of vehicle control in series [1] (compound 20 μM) and 87 % of vehicle control in series [1] (compound 100 μM). Also, in series [2], the IC50 turned out to be 139 nM. Besides, the IL-1β level with LPS stimulated BV2 cells (compound 1 μM) is on record as 77 % of vehicle control; in the series with LPS stimulated BV2 cells (compound 10 μM) it was 94 % of vehicle control. Besides, the IL-2 level with LPS stimulated BV2 cells (compound 1 μM) is 52 % of vehicle control; in the series with LPS stimulated BV2 cells (compound 10 μM), 37 % of vehicle control. Also, the IL-6 level in the series on LPS stimulated BV2 cells (compound 1 μM) was 37 % of vehicle control; in the series with LPS stimulated BV2 cells (compound 10 μM), 38 % of vehicle control. Besides, the TNF-α level is 107 % of vehicle control in the series on LPS stimulated BV2 cells (compound 1 μM) and 102 % of vehicle control with LPS stimulated BV2 cells (compound 10 μM).

One may read the IC50 as the point on the concentration scale where inhibition reaches its midpoint.

These data come from patent US20260092039A1, “DUAL INHIBITORS FOR THE TREATMENT OF ALZHEIMER'S DISEASE” (UNIVERSITAT DE BARCELONA, priority 2023, published 2026).
